Test results reported in patent US10954258B2, “STAT3 dimerization inhibitors” (H. LEE MOFFITT CANCER CENTER AND RESEARCH INSTITUTE, INC., priority 2012, dated 2021).

Assays:
Format in all cases: cell-based, human
[1] = tested on: MDA-MB-468 cells; assay: anchorage independent growth by soft agar assay, MDA-MB-468; details: constitutively active STAT3
[2] = tested on: H460 cells; assay: wound healing (migration) assay, H460; details: low levels of P-STAT3
[3] = tested on: STAT3-responsive promoter-firefly luciferase reporter (pLucTKS3); assay: luciferase reporter assay, STAT3-responsive promoter
Experimental: (§1) MDA-MB-468 cells were plated into 12-well plate with 4×10^5 cells per well. The cells were transiently transfected with pLucSRE, pLucTKS3 or STAT3-C with β-gal and then were treated with vehicle, S3I-1756 or S3I-1757 for 48 hours. Then cytosolic extracts of equal total protein were prepared from S3I-1757-treated or -untreated and analyzed for luciferase activity using a TD-20/20 luminometer (Turner Designs, Sunnyvale, Calif., USA) described by us previously.
(§2) To this end, MDA-MB-468 cells were transiently co-transfected with a STAT3-responsive promoter-firefly luciferase reporter (pLucTKS3) and 3-gal reporter used to normalize the transfection efficacy. To determine the selectivity of S3I-1757 to suppress STAT3-dependent over STAT3-independent transcriptional activation, MDA-MB-468 cells were also co-transfected with SRE promoter-renilla luciferase reporter (pLucSRE) and β-gal reporter. […] STAT3-C spontaneously dimerizes via disulfide bonds in the absence of tyrosine phosphorylation and is therefore not predicted to be inhibited by a small molecule that is designed to mimic phosphotyrosine binding.

[4] = tested on: SRE promoter-renilla luciferase reporter (pLucSRE); assay: luciferase reporter assay, SRE promoter; details: MDA-MB-468; 48 hours
Experimental: as §1, §2

[5] = tested on: MDA-MB-231 and A-549 cells; assay: wound healing (migration) assay, cells with persistently activated STAT3
Experimental: A549, MDA-MB-231 and H460 cells were seeded at 6×10^5 cells per dish into 60 mm plate and allowed to grow overnight. Wounds were made the following day by scratching the cells with pipette tips (1-10 μL). Cells were treated with vehicle, S3I-1756 or S3I-1757 and allowed to migrate into the scratched area for 16 hours in regular growth medium. The migration of cells was visualized at 10× magnification using a Leica Microscope at time 0 (right before the drug was added) and 16 hours after vehicle, S3I-1756, or S3I-1757 treatments.
The cancer cells were cultured with serum-starved medium for 8 hours before scratching the cells with a pipette tip and treating with increasing concentrations of S3I-1757 for 24 hours. […] Finally, the ability of S3I-1757 to inhibit selectively invasion was determined.

[6] = target: T1, STAT3 binding to EGFR (Mus musculus, UniProt P42227); assay: co-immunoprecipitation of EGFR and P-STAT3 with HA-STAT3 after EGF stimulation; details: HA-STAT3/FLAG-STAT3/HEK293 cells stimulated with EGF
T1 construct: expressed in transfected cells; host or cells: HEK293 stably co-expressing HA-STAT3 and FLAG-STAT3; EGFR endogenous; stimulated with 100 ng/ml EGF

[7] = tested on: MDA-MB-468, MDA-MB-231 and A-549 cells; assay: Matrigel invasion assay, cells with activated STAT3; details: 48 hours
[8] = target: binding of FLAG-STAT3 to HA-STAT3 (Mus musculus, UniProt P42227); assay: co-immunoprecipitation of FLAG-STAT3 with HA-STAT3 in HEK293 cells; details: HEK293 cells co-expressing FLAG- and HA-STAT3; treated 4 h
Experimental: HEK-293/FLAG-STAT3/HA-STAT3 cells were treated for 4 h with vehicle, S3I-1757, S3I-1756, Ac-G{pTYR}LPQTV-[…]-NH2 (SEQ ID NO:3) or Ac-GYLPQTV-[…]-NH2 (SEQ ID NO:4) and then lysed in 20 mM Tris-HCl (pH 7.4), 5 mM EDTA, 10 mM Na4P2O7, 100 mM NaF, 2 mM Na3VO4, 1% NP-40.1 mM PMSF and 10 mg/ml aprotinin. For EGF stimulation group, HEK-293/FLAG-STAT3/HASTAT3 cells were treated by 100 ng/ml EGF for 30 minutes before making cell lysate. Protein A or G agarose (EMD Millipore, Billerica, Mass., USA) was washed twice with PBS and restore to 50% slurry with PBS. 500 μg of lysate were pre-cleared by mixture of protein A and protein G-agarose for 1 h at 4° C. and then remove protein A and G-agarose by centrifuge at 1300 rpm for 3 minutes. And then 500 μg of lysate was immunoprecipitated with 50 ng of HA antibody overnight at 4° C. on shaker and then capture the immunocomplex by adding 100 μl Protein A and G agarose/sepharose bead slurry for 1 hour at 4° C. Samples were washed five times with lysis buffer and then boiled in 5×SDS-PAGE sample buffer and run on SDS-PAGE gel. Protein was transferred to nitrocellulose membrane and then blotted as described above for HA, FLAG, pSTAT3, EGFR, and STAT3.
However, the FP assay only measured the ability of S3I-1757 to displace the 7 amino acid fluorescein-labelled GpYLPQTV phosphotyrosine peptide from the SH2 domain of STAT3 protein in vitro. Therefore, it was determined if the intracellular reciprocal binding of 2 full-length STAT3 proteins is inhibited. To this end, an assay was developed to measure directly STAT3-STAT3 dimerization in intact cells by cloning HA-tagged STAT3 and FLAG-tagged STAT3, generating HEK293 cells that stably co-express HA-STAT3 and FLAG-STAT3 and using these cells for coimmunoprecipitation and co-localization. […] This assay was validated by treating the FLAG-STAT3/HA-STAT3 HEK293 cells with tyrosine phosphorylated or nonphosphorylated GYLPQTV peptide fused to a membrane-translocating sequence (MTS) to allow cell uptake. […]

T1 sequence (P42227 whole entry): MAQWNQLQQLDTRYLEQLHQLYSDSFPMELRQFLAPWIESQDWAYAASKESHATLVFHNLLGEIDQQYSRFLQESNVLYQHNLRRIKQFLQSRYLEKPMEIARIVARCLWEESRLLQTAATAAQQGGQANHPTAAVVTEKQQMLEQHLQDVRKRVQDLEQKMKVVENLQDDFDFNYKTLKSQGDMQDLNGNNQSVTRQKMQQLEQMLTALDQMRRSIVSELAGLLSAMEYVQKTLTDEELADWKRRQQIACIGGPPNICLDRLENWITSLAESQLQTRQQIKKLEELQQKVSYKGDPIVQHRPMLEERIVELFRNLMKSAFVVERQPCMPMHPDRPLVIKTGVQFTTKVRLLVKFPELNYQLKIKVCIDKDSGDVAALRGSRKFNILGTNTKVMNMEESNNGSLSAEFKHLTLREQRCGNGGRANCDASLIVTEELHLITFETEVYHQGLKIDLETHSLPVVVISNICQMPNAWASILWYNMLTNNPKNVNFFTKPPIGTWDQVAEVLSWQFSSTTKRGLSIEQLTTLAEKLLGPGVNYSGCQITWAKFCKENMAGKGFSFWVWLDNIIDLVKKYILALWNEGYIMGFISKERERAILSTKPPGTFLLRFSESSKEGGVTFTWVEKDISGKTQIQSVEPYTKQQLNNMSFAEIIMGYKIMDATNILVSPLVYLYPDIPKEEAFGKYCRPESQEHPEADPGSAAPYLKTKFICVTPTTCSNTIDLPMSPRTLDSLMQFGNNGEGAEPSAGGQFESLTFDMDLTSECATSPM
Chain of binding of FLAG-STAT3 to HA-STAT3 (P42227 whole entry): as above

STAT3-dependent luciferase activity (pLucTKS3) ([3]; MDA-MB-468, 48 hours): less luciferase activity
SRE-driven luciferase activity (STAT3-independent) [4]: minimal effect
EGFR and P-STAT3 co-immunoprecipitated with HA-STAT3 [6]: inhibited these interactions
Compound: O=C(O)c1cc(N(Cc2ccc(C3CCCCC3)cc2)C(=O)c2ccc(Oc3ccccc3)cc2)ccc1O [Compound 20g, 5-(N-(4-Cyclohexylbenzyl)-4-phenoxybenzamido)-2-hydroxybenzoic acid]
anchorage independent growth (soft agar), MDA-MB-468 [1]: significantly inhibited
migration (wound healing), H460 [2]: minimally affected
STAT3-dependent transcriptional activity in cells transfected with STAT3-C ([3]; MDA-MB-468 transfected with STAT3-C): rescued from the S3I-1757 inhibition
migration (wound healing), MDA-MB-231 and A-549 [5]: prevented this migration
invasion, MDA-MB-468, MDA-MB-231 and A-549 [7]: inhibited invasion
binding of FLAG-STAT3 to HA-STAT3 (co-immunoprecipitation) [8]: inhibited the binding of FLAG-STAT3 to HA-STAT3 in a concentration-dependent manner
